Legend:
B16F10 melanoma cells = assay: Cryo ablation of established B16F10 tumors plus peri-tumoral immunopotentiator, re-challenge after 40 days, Kaplan-Meier survival; assay type: in vivo, C57BL/6n mice; conditions: cryo ablation combined with immunopotentiator; for survival rate after 60 days: 30 μg p.t. within 30 min. after ablation, re-challenge with 15*10^3 B16F10 cells s.c. 40 days after ablation; for protection from tumor outgrowth (re-challenge, Kaplan-Meier): re-challenge 40 days later, result in words
Experimental: C57BL/6n mice (6-8 weeks old) were purchased from Charles River Wiga (Sulzfeld, Germany) and maintained under specific pathogen-free barrier conditions at the Central Animal Laboratory (Nijmegen, The Netherlands). Drinking water and standard laboratory food pellets were provided ad libitum and mice were allowed to settle for at least 1 week before random assignment into specific treatment groups. The experiments were performed according to the guidelines for animal care of the Nijmegen Animal Experiments Committee.
The murine melanoma cell line B16F10 (ATCC) was cultured in complete medium (MEM, 5% fetal bovine serum (Greiner Bio-one), 100 U/ml penicillin G sodium and 100 μg/ml streptomycin (Pen/Strep), MEM sodium pyruvate (1 mM), NaHCO3, MEM vitamins, MEM non-essential amino acids (all from Gibco), 20 μM β-mercaptoethanol (β-ME)).
B16F10 melanoma cells were suspended in a mixture of PBS and Matrigel (2:1), and 0.5*10^6 cells in a total volume of 50 μl were injected s.c. at the right femur. When tumor diameters measured between 6-8 mm (generally at day 9-10) they were randomly assigned to treatment groups. Cryo ablation (Cryo) was performed under isoflurane/O2/N2O anesthesia using a liquid nitrogen cryo ablation system (CS76, Frigitronics, Shelton, Conn.) of which the tip is cooled by a continuous flow of circulating liquid nitrogen. During 2 treatment cycles of freezing and thawing the tumor was macroscopically frozen, while leaving surrounding healthy tissue intact. To monitor the induction of long-lasting tumor protection, mice were re-challenged with 15*10^3 B16F10 cells 40 days after cryo ablation. Re-challenges were injected in 100 μl PBS s.c. on the right flank. Mice were sacrificed when tumor volume exceeded 1000 mm^3 or when tumors brake through the skin barrier.
CpG 1668 (‘5-[…]-3’) with total phosphorothioate-modified backbone was purchased from Sigma Genosys (Haverhill, UK). C-di-GMP was synthesized as described by Spehr V, Warrass R, Höcherl K, Ilg T., in Appl. Biochem. Biotechnol. 2011 Oct;165(3-4):761-75. CpG and/or C-di-GMP were peri-tumorally injected in PBS (p.t., 30 μg divided over 2 injections of 20 μl lining the ablated tumor). All injections were done within 30 min. after ablation.
(§1) Kaplan Meier survival curves were analyzed using a log rank test. Cytokine data was analyzed using ANOVA with a post-hoc Bonferroni test.
FIG. 1. Anti-tumor memory response following ablation combined with C-di-GMP and CpG. Established B16F10 tumors growing subcutaneously on the right femur were treated with cryo ablation alone, or combined with the indicated immunopotentiators Immunopotentiators ([…]) were injected in 40 μl PBS in the peri-tumoral area following the ablation. […]

[1] = test system: Mouse bone marrow dendritic cells; assay: Type-I IFN production by bone marrow dendritic cells, bioassay using L929 ISRE reporter cells; assay type: cell-based; conditions: overnight incubation of 1.2×10^5 DCs; CpG 1 μg/ml, c-GMP 10 μg/ml, c-di-GMP 10 μg/ml
Experimental: (§2) Mouse bone marrow dendritic cells were cultured with granulocyte-macrophage colony-stimulating factor (GM-CSF) and harvested at day 7 of culture. 1.2×10^5 cells were exposed during overnight incubation to the following immunopotentiators: CpG 1668 1 μg/ml, c-GMP 10 μg/ml, c-di-GMP 10 μg/ml. Next, supernatant was carefully harvested and IL12 or type-I IFN production was determined. For IL12 an ELISA method was used according to the manufacturer's instructions (BD Biosciences). Type-I IFN was determined by a standard bioassay using L929 ISRE reporter cells.
as §1
(§3) FIG. 2. Synergistic type I IFN production by DCs upon combined treatment with c-di-GMP and CpG. Mouse bone marrow dendritic cells were cultured with GM-CSF and harvested at day 7 of culture. 1.2×10^5 cells were exposed during overnight incubation to the indicated immmunopotentiators or combinations of immunopotentiators: CpG 1 μg/ml, c-GMP 10 μg/ml, c-di-GMP 10 μg/ml. Next, supernatant was harvested and type I IFN production was determined by a standard bioassay using L929 ISRE cells. Results are shown as means with sem, *=p<0.001 vs. all other bars. Similar results were obtained in three independent experiments.

[2] = test system: Mouse bone marrow dendritic cells; assay: IL12 production by bone marrow dendritic cells, ELISA; assay type: cell-based; conditions: overnight incubation of 1.2×10^5 DCs; CpG 1 μg/ml, c-GMP 10 μg/ml, c-di-GMP 10 μg/ml
Experimental: as §2, §1
as §3, with “3.” for “2.”, “IL12” for “type I IFN”, “indicated” for “indicated immmunopotentiators or combinations of”, “by” for “by a”, “ELISA methods.” for “bioassay using L929 ISRE cells.”, “*=p<0.001.” for “*=p<0.001 vs. all other bars.”

human colon cancer cell = conditions: in vitro; cited from earlier work

Compound | survival rate after 60 days (B16F10 melanoma cells) | protection from tumor outgrowth (re-challenge, Kaplan-Meier) (B16F10 melanoma cells) | type I IFN production (in words) [1] | IL12 production (in words) [2] | type I IFN production [1] | effect on basal and GF-stimulated cancer cell proliferation (human colon cancer cell)
5-TCCATGACGTTCCTGATGCT-3 (DNA, all phosphorothioate, methylation of C not given here) [CpG 1668, CpG ODN 20-mer, TLR9 agonist, purchased from Sigma Genosys] | approx. 50% | increased protection from tumor outgrowth | no IFN or only modest amounts of IFN | modest level of IL12 production |  | 
Nc1nc2c(ncn2[C@@H]2O[C@@H]3COP(=O)(O)O[C@H]3[C@H]2O)c(=O)[nH]1 [c-GMP] |  |  | no IFN or only modest amounts of IFN | do not produce IL12 |  | 
Nc1nc2c(ncn2C2OC3COP(=O)(O)OC4C(COP(=O)(O)OC3C2O)OC(n2cnc3c(=O)[nH]c(N)nc32)C4O)c(=O)[nH]1 (centres unmarked) [c-di-GMP, 3′,5′-cyclic diguanylic acid] | approx. 50% | increased protection from tumor outgrowth |  | do not produce IL12 | < 50 U/ml | inhibitory effect
